Tests used:
[1] = molecular target: human recombinant histamine H1 receptor (Homo sapiens, UniProt P35367); test: Histamine H1 radioligand binding assay ([3H]Pyrilamine); conditions: compound at 1 μM, receptor expressed in CHO cells
Outline: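 Membranes from CHO cells expressing the receptor, in 50 mM Tris-HCl pH 7.4 with 2 mM MgCl2, 100 mM NaCl and 250 mM sucrose, incubated with 1.2 nM [3H]pyrilamine for 180 min at 25° C; nonspecific binding defined with 1 μM pyrilamine.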

[2] = molecular target: human recombinant dopamine D2L receptor (Homo sapiens, UniProt P14416); test: Dopamine D2L radioligand binding assay ([3H]Spiperone); conditions: compound at 1 μM, 0.16 nM [3H]Spiperone, CHO cells, read-out: Percent Inhibition of ligand binding, Dopamine (1μM)
Outline: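 Test compounds at 1 μM or lower (1% DMSO vehicle) incubated with 0.16 nM [3H]Spiperone for 120 min at 25 °C; nonspecific binding defined with 10 μM haloperidol. Filtration and counting of bound radioligand; values given as percent inhibition of specific binding.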

[3] = molecular target: T1, human recombinant serotonin (5-Hydroxytryptamine) 5-HT2A receptor (Homo sapiens, UniProt P28223); test: Serotonin 5-HT2A radioligand binding assay ([3H]Ketanserin); conditions: compound at 1 μM; 0.5 nM [3H]Ketanserin; CHO-K1 cells; read-out: Percent Inhibition of ligand binding, Serotonin (1 μM) 5-HT2A
T1 construct: expressed in transfected cells; host or cells: Chinese hamster ovary (CHO-K1) cells
Description: Compounds of the invention were incubated with 0.5 nM [^3H]Ketanserin for 60 min at 25° C. Non-specific binding was estimated in the presence of 1 μM Mianserin. Receptor proteins were filtered and washed, the filters were then counted to determine [^3H]Ketanserin specifically bound. Compounds were screened at 1 μM or lower, using 1% DMSO as vehicle. Biochemical assay results are presented as the percent inhibition of specific binding in Table 4.

[4] = molecular target: T2, human recombinant adrenergic α1D receptor (Homo sapiens, UniProt P25100); test: Adrenergic α1D radioligand binding assay ([3H]Prozosin); conditions: compound at 1 μM; 0.6 nM [3H]Prozosin; HEK-293 cells; read-out: Percent Inhibition of ligand binding, Adrenergic (1 μM) a1D
T2 construct: expressed in transfected cells; host or cells: human embryonic kidney (HEK-293) cells
T2 sequence (P25100 1-572): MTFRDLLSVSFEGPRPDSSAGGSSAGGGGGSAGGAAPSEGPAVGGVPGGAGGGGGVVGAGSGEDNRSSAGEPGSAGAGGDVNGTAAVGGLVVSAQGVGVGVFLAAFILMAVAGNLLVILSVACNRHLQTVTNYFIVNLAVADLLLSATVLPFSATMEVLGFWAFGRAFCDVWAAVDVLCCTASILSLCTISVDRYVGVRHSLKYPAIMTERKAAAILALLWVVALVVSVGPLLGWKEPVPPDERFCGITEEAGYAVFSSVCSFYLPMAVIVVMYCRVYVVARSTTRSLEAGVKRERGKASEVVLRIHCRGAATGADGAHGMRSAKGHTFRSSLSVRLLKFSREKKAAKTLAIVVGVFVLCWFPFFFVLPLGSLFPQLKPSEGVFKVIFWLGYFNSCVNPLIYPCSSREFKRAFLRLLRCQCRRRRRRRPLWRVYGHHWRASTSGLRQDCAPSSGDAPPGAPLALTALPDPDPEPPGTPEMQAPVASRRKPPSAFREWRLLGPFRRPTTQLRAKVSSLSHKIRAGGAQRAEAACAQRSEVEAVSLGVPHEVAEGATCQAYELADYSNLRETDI
Description: Compounds of invention were incubated with 0.6 nM [^3H]Prozosin for 60 min at 25° C. Non-specific binding was estimated in the presence of 10 μM phentolamine Receptor proteins were filtered and washed, the filters were then counted to determine [^3H]Prozosin specifically bound.

T1 sequence (P28223 whole entry): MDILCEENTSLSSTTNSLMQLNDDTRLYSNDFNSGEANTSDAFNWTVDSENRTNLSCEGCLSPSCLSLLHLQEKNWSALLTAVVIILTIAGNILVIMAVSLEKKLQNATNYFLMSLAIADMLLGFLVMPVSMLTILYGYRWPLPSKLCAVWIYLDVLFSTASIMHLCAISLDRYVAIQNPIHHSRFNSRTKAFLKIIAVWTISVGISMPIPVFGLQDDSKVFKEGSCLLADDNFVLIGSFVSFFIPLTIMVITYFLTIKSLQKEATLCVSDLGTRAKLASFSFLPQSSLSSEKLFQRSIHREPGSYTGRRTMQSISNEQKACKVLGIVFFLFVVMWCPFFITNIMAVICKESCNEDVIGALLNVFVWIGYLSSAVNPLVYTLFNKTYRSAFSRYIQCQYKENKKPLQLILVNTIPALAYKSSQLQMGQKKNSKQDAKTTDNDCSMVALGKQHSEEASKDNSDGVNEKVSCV
Sequence of human recombinant dopamine D2L receptor (P14416 whole entry): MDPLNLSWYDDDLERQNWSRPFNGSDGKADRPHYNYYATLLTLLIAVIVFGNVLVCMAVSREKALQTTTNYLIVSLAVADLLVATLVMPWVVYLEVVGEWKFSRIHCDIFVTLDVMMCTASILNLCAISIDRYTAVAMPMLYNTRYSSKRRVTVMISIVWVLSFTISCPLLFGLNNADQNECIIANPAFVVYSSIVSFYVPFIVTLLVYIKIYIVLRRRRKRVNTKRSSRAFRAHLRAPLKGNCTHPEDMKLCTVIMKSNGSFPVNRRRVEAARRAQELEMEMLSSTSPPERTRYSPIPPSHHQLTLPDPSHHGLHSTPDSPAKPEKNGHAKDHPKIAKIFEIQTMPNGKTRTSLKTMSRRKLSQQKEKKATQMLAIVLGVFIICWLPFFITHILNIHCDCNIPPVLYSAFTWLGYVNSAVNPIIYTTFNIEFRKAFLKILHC
Sequence of human recombinant histamine H1 receptor (P35367 whole entry): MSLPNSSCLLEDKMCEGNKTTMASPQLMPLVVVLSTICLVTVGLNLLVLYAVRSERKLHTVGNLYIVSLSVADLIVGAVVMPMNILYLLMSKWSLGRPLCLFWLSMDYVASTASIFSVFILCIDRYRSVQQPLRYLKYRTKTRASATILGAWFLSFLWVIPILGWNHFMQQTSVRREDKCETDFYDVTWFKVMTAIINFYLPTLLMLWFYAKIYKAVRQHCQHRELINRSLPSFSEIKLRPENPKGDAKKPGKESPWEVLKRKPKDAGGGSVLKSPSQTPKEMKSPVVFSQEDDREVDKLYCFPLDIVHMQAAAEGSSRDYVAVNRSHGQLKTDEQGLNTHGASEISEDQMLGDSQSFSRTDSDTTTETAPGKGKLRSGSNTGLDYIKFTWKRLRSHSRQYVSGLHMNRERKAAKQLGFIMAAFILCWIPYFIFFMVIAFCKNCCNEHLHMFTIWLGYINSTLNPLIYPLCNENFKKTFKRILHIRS

| Structure (SMILES) | inhibition at 1 µM [1] | inhibition at 1 µM [2] | inhibition at 1 µM [3] | inhibition at 1 µM [4] |
| --- | --- | --- | --- | --- |
| Cc1ccc2c(c1)c1c(n2CC(=O)c2ccccc2)CCN(C)C1 [Compound 1-35, 2-(2,8-dimethyl-3,4-dihydro-1H-pyrido[4,3-b]indol-5(2H)-yl)-1-phenylethanone] | 52% | 4% | 90% | 18% |
| CN1CCc2c(c3cc(Cl)ccc3n2CC(=O)c2ccc(Cl)cc2)C1 [Compound 1-38, 2-(8-chloro-2-methyl-3,4-dihydro-1H-pyrido[4,3-b]indol-5(2H)-yl)-1-(4-chlorophenyl)ethanone] | 91% | 44% | 100% | 56% |
| CN1CCc2c(c3cc(Cl)ccc3n2CC(=O)c2ccccc2)C1 [Compound 1-36, 2-(8-chloro-2-methyl-3,4-dihydro-1H-pyrido[4,3-b]indol-5(2H)-yl)-1-phenylethanone] | 84% | 73% | 98% | 52% |
| CN1CCc2c(c3cc(Cl)ccc3n2CC(=O)c2ccc(F)cc2)C1 [Compound 1-37, 2-(8-chloro-2-methyl-3,4-dihydro-1H-pyrido[4,3-b]indol-5(2H)-yl)-1-(4-fluorophenyl)ethanone] | 83% | 85% | 98% | 56% |
| Cc1ccc2c(c1)c1c(n2CCc2ccc(CCCN)nc2)CCN(C)C1 [Compound 1-40, 3-(5-(2-(2,8-dimethyl-3,4-dihydro-1H-pyrido[4,3-b]indol-5(2H)-yl)ethyl)pyridin-2-yl)propan-1-amine] | 81% | 3% | 78% | 53% |
| Cc1ccc2c(c1)c1c(n2CCc2ccc(C(F)(F)F)nc2)CCNC1 [Compound 1-41, 8-methyl-5-(2-(6-(trifluoromethyl)pyridin-3-yl)ethyl)-2,3,4,5-tetrahydro-1H-pyrido[4,3-b]indole] | 72% | -8% | 66% | 74% |
| Cc1ccc2c(c1)c1c(n2CCc2ccc(C)nc2)CCN(CCC#N)C1 [Compound 1-34, 3-(8-methyl-5-(2-(6-methylpyridin-3-yl)ethyl)-3,4-dihydro-1H-pyrido[4,3-b]indol-2(5H)-yl)propanenitrile] | 65% | -4% | 0% | 6% |
| Cc1ccc2c(c1)c1c(n2CCc2ccc(C)nc2)CCN(CCCO)C1 [Compound 1-42, 3-(8-methyl-5-(2-(6-methylpyridin-3-yl)ethyl)-3,4-dihydro-1H-pyrido[4,3-b]indole-2(5H)-yl)propan-1-ol] | 93% | 11% | 87% | 55% |
| Cc1ccc2c(c1)c1c(n2CC(=O)c2ccc(F)cc2)CCN(C)C1 [Compound 1-39, 2-(2,8-dimethyl-3,4-dihydro-1H-pyrido[4,3-b]indol-5(2H)-yl)-1-(4-fluorophenyl)ethanone] | 86% | 57% | 98% | 57% |

From patent US9255094B2, “Pyrido[4,3-B]indoles and methods of use” (Medivation Technologies, Inc., priority 2009, dated 2016)
